From patent US20220218679A1, “NOVEL COMPOUNDS AND PHARMACEUTICAL COMPOSITIONS THEREOF FOR THE TREATMENT OF INFLAMMATORY DISORDERS” (Galapagos NV, priority 2019, published 2022)

How the values were obtained:
[1] = system: CL097 triggered TNFα release in human whole blood; experiment: Ex vivo human TNFα release inhibition (human whole blood assay); type: cell-based; details: CL097 2 μg/mL, 3 h 30 min at 37° C.
From the text: 4.10.1. Ex Vivo Human IFNα and TNFα Release Inhibition (Human Whole Blood Assay)
The aim of the assay is to evaluate the activity of compounds of the invention on the activated TLR/IRAK-4 pathway in an ex vivo human whole blood setting. Toll-like receptors (TLRs) are pattern recognition receptors that recognize a wide variety of microbial molecules, called pathogen-associated molecular patterns (PAMPs). Human TLR7 and TLR8 recognize imidazoquinoline compounds (e.g., CL097—CAS n #1026249-18-2) and single stranded RNAs as their natural ligands. Activation of TLRs leads to the production of several cytokines (e.g., IFNα, TNFα, IL-8, IL-6) by the TLR agonist-treated cells, whereas IRAK4 leads to the production of IFNα. Cytokine release is used as readout in this assay and represents a measure for the level of inhibition of the TLR/IRAK-4 pathway by the tested compound. It should be noted that in the context of the complete organism, other sources for these cytokines exist that are not dependent on the TLR/IRAK-4 pathway, such as e.g., macrophages (upon activation of the Fcγ receptor (Yan et al., 2012)) or T cells (upon activation of the T cell receptor (Brehm et al., 2005)).
4.10.1.1. Experimental Design
Blood was collected from healthy volunteers into lithium heparin tubes by venipuncture, then gently inverted several times to prevent clotting and incubated for at least 15 min at 37° C. on a rocking mixer shaker. Then, 100 μL of blood was dispensed into polypropylene 96-well microplate and pre-incubated in duplicate with 0.3% DMSO or test compound at different concentrations (from 30 to 0.01 μM, 3-fold dilutions to get 0.3% DMSO at the final) for 15 min at 37° C. After this pre-incubation, blood was triggered with CL097 (2 μg/mL from 1 mg/mL solution in water; InvivoGen, tlrl-c97) for 3 h 30 min at 37° C. Microtubes were centrifuged at 5000×g for 10 min at 4° C. and approximately 40 μL of plasma were collected into a polystyrene 96-well plate. Plasma could be analyzed freshly, within 30 min after triggering, or frozen at −80° C. Finally, the quantification of TNFα and IFNα were performed in the plasma using AlphaLISA Kit for TNFα and IFNα according to the manufacturer's instructions and read on the Ensight (PerkinElmer).
For each blood sample, the TNFα concentrations of the samples were determined from the fit. Data were then expressed a percentage of inhibition PIN for each replicate using the formula:
With mean TNFα with CL097=mean TNFα concentration of replicate samples triggered with CL097; TNFαsample1=TNFα concentration of sample 1; mean TNFα with vehicle=mean TNFα concentration of replicate samples treated with vehicle.
Curve fitting for pIC50 determination were generated using mean PIN±sem. Graphs and pIC50 calculations were derived using Prism 5.03 software (GraphPad).

Human Hepatocyte = experiment: Metabolic stability in hepatocytes (human); type: in vitro ADME; details: 1 μM test compound, cryopreserved human hepatocytes
Protocol: 4.6. Metabolic Stability in Hepatocytes
The aim of this assay is to determine the metabolic stability of the compound in hepatocytes (cryopreserved) of different species. Low hepatocyte stability may result in the formation of unwanted metabolites, high clearance, and therefore is not desirable.
The decrease in parent was assessed by measuring the percentage remaining by LC-MS/MS analysis.
A 10 mM stock solution of test compound in DMSO was first diluted in DMSO to 3 mM, and then in modified Krebs-Henseleit buffer (Sigma, K3753) to 5 μM. This compound dilution was added to a suspension of pooled cryopreserved hepatocytes (BioreclamationIVT) at 37° C. under gentle shaking.
Final reaction conditions were: 1 μM of test compound, 0.03% DMSO, 0.5 million viable hepatocytes/mL, and 75 μL incubation volume.
Testosterone (1 μM) and 7-hydroxycoumarin (1 μM) were used, respectively as phase I and phase II metabolic reaction controls.
After 0, 10, 20, 45, 90, 120 and 180 min of incubation, the reaction was terminated with 225 μL of MeCN:MeOH (2:1) containing 100 ng/mL of diclofenac as analytical internal standard. Samples were mixed, centrifuged and the supernatant analyzed by LC-MS/MS.
The instrument responses (ratios of test compound and internal standard peak areas) were referenced to the zero time point samples (considered as 100%) in order to determine the percentage of compound remaining.
Plots of percentage compound remaining were used to determine the intrinsic clearance in the hepatocyte incubations using the following equations:
Scaled Clint [L/h/kg]=Clint[μL/min/10^6 cells]*#(10^6) cells/g liver*60*( 1/10^6) Scaled Clint unbound [L/h/kg]=Clint [L/h/kg]/Fu,inc where: fu,inc equals hepatocyte binding, derived from microsomal binding (fu,mic) by following equation: […]

| SMILES | IC50 ([1]; Homo sapiens) | Human Hepatocyte stability (Perc. remaining at 90 min) (Human Hepatocyte) | IC50 [1] |
| --- | --- | --- | --- |
| COc1cn2nc(CC(F)C(C)(C)O)cc2cc1NC(=O)c1cccn(C2CC2)c1=O (single isomer, unassigned; enantiomer a) [Compound 25, 1-cyclopropyl-N-[2-(2-fluoro-3-hydroxy-3-methyl-butyl)-6-methoxy-pyrazolo[1,5-a]pyridin-5-yl]-2-oxo-pyridine-3-carboxamide Enantiomer A] | 0.5 to 1 µM | 97.2 Perc. | – |
| COc1cn2nc(CC(F)C(C)(C)O)cc2cc1NC(=O)c1cccn(C2CC2)c1=O (single isomer, unassigned; enantiomer b) [Compound 26, 1-cyclopropyl-N-[2-(2-fluoro-3-hydroxy-3-methyl-butyl)-6-methoxy-pyrazolo[1,5-a]pyridin-5-yl]-2-oxo-pyridine-3-carboxamide Enantiomer B] | – | 97.8 Perc. | 1 to 5 µM |
| COc1cn2nc(CCC(C)(C)O)cc2cc1NC(=O)c1cccn(C2CC2)c1=O [Compound 1, 1-cyclopropyl-N-[2-(3-hydroxy-3-methylbutyl)-6-methoxypyrazolo[1,5-a]pyridin-5-yl]-2-oxopyridine-3-carboxamide] | 0.0001 to 0.5 µM | 96.6 Perc. | – |
| COc1cn2nc(CCC(C)(C)O)cc2cc1NC(=O)c1cccn(C)c1=O [Compound 2, N-[2-(3-hydroxy-3-methylbutyl)-6-methoxypyrazolo[1,5-a]pyridin-5-yl]-1-methyl-2-oxopyridine-3-carboxamide] | 0.0001 to 0.5 µM | 100.45 Perc. | – |
| COc1cn2nc(CCC(C)(C)O)cc2cc1NC(=O)c1cccc(C(F)(F)F)n1 [Compound 3, N-[2-(3-hydroxy-3-methylbutyl)-6-methoxypyrazolo[1,5-a]pyridin-5-yl]-6-(trifluoromethyl)pyridine-2-carboxamide] | 1 to 5 µM | 22.8 Perc. | – |
| CC(C)(O)CCc1cc2cc(NC(=O)c3cccc(C(F)(F)F)n3)c(C(N)=O)cn2n1 [Compound 4, 2-(3-hydroxy-3-methylbutyl)-5-[[6-(trifluoromethyl)pyridine-2-carbonyl]amino]pyrazolo[1,5-a]pyridine-6-carboxamide] | 0.0001 to 0.5 µM | – | – |
| CNC(=O)c1cn2nc(CCC(C)(C)O)cc2cc1NC(=O)c1cccc(C(F)(F)F)n1 [Compound 5, 2-(3-hydroxy-3-methylbutyl)-N-methyl-5-[[6-(trifluoromethyl)pyridine-2-carbonyl]amino]pyrazolo[1,5-a]pyridine-6-carboxamide] | 1 to 5 µM | 94.5 Perc. | – |
| COc1cn2nc(CCC(C)(C)O)cc2cc1NC(=O)c1cccn(C(F)F)c1=O [Compound 7, 1-(difluoromethyl)-N-[2-(3-hydroxy-3-methyl-butyl)-6-methoxy-pyrazolo[1,5-a]pyridin-5-yl]-2-oxo-pyridine-3-carboxamide] | 1 to 5 µM | – | – |
| CNC(=O)c1cn2nc(C3CCCS(=O)(=O)C3)cc2cc1NC(=O)c1cccc(C(F)(F)F)n1 (centres unmarked) [Compound 8, 2-(1,1-dioxothian-3-yl)-N-methyl-5-[[6-(trifluoromethyl)pyridine-2-carbonyl]amino]pyrazolo[1,5-a]pyridine-6-carboxamide] | – | 107 Perc. | – |
| CCOc1cn2nc(CCC(C)(C)O)cc2cc1NC(=O)c1cccn(C(F)F)c1=O [Compound 9, 1-(difluoromethyl)-N-[6-ethoxy-2-(3-hydroxy-3-methyl-butyl)pyrazolo[1,5-a]pyridin-5-yl]-2-oxo-pyridine-3-carboxamide] | 0.5 to 1 µM | 85.6 Perc. | – |
| CNC(=O)c1cn2nc(C3CCN(C)CC3)cc2cc1NC(=O)c1cccc(C(F)(F)F)n1 [Compound 12, N-methyl-2-(1-methyl-4-piperidyl)-5-[[6-(trifluoromethyl)pyridine-2-carbonyl]amino]pyrazolo[1,5-a]pyridine-6-carboxamide] | 1 to 5 µM | – | – |
| COc1c(NC(=O)c2cccn(C3CC3)c2=O)cc2cc(CCC(C)(C)O)nn2c1C [Compound 13, 1-cyclopropyl-N-[2-(3-hydroxy-3-methyl-butyl)-6-methoxy-7-methyl-pyrazolo[1,5-a]pyridin-5-yl]-2-oxo-pyridine-3-carboxamide] | – | 98.45 Perc. | – |
| CNC(=O)c1cn2nc(C3CCOCC3)cc2cc1NC(=O)c1cccc(C(F)F)n1 [Compound 15, 5-[[6-(difluoromethyl)pyridine-2-carbonyl]amino]-N-methyl-2-tetrahydropyran-4-yl-pyrazolo[1,5-a]pyridine-6-carboxamide] | > 5 µM | – | – |
| NC(=O)c1cn2nc(C3CCOCC3)cc2cc1NC(=O)c1cccc(C(F)F)n1 [Compound 16, 5-[[6-(difluoromethyl)pyridine-2-carbonyl]amino]-2-tetrahydropyran-4-yl-pyrazolo[1,5-a]pyridine-6-carboxamide] | – | 75.95 Perc. | – |
| CCOc1cn2nc(CCC(C)(C)O)cc2cc1NC(=O)c1cccn(C2CC2)c1=O [Compound 17, 1-cyclopropyl-N-[6-ethoxy-2-(3-hydroxy-3-methyl-butyl)pyrazolo[1,5-a]pyridin-5-yl]-2-oxo-pyridine-3-carboxamide] | 0.5 to 1 µM | 87.25 Perc. | – |
| CCOc1cn2nc(CCC(C)(C)O)cc2cc1NC(=O)c1cccn(C)c1=O [Compound 18, N-[6-ethoxy-2-(3-hydroxy-3-methyl-butyl)pyrazolo[1,5-a]pyridin-5-yl]-1-methyl-2-oxo-pyridine-3-carboxamide] | 0.5 to 1 µM | 90.8 Perc. | – |
| CC(C)(O)CCc1cc2cc(NC(=O)c3cccc(C(F)F)n3)c(C(N)=O)cn2n1 [Compound 20, 5-[[6-(difluoromethyl)pyridine-2-carbonyl]amino]-2-(3-hydroxy-3-methyl-butyl)pyrazolo[1,5-a]pyridine-6-carboxamide] | – | 81.65 Perc. | – |
| COc1cn2nc(CCC(C)(C)O)cc2cc1NC(=O)c1cccn(C2CCC2)c1=O [Compound 21, 1-cyclobutyl-N-[2-(3-hydroxy-3-methyl-butyl)-6-methoxy-pyrazolo[1,5-a]pyridin-5-yl]-2-oxo-pyridine-3-carboxamide] | 1 to 5 µM | 92.15 Perc. | – |
| COc1cn2nc(CC(F)C(C)(C)O)cc2cc1NC(=O)c1cccn(C2CC2)c1=O (centres unmarked) [Compound 22, 1-cyclopropyl-N-[2-(2-fluoro-3-hydroxy-3-methyl-butyl)-6-methoxy-pyrazolo[1,5-a]pyridin-5-yl]-2-oxo-pyridine-3-carboxamide] | 0.0001 to 0.5 µM | 100.05 Perc. | – |
| [2H]C([2H])([2H])C(O)(CCc1cc2cc(NC(=O)c3cccn(C4CC4)c3=O)c(OC)cn2n1)C([2H])([2H])[2H] [Compound 23, 1-cyclopropyl-N-[6-methoxy-2-[4,4,4-trideuterio-3-hydroxy-3-(trideuteriomethyl)butyl]pyrazolo[1,5-a]pyridin-5-yl]-2-oxo-pyridine-3-carboxamide] | 0.0001 to 0.5 µM | 101.45 Perc. | – |
